Reference: patent publication US20210070748A1, “INHIBITORS OF BRUTONS TYROSINE KINASE” (Pharmacyclics LLC, priority 2015, published 2021)

What was measured:
Assay type in all cases: biochemical
ITK = molecular target: T1, ITK (Homo sapiens, UniProt Q08881); assay: Inhibition of a panel of kinases, in vitro HotSpot kinase assay: ITK; details: D-compounds panel data; 1 μM ATP
T1 sequence (Q08881 1-620): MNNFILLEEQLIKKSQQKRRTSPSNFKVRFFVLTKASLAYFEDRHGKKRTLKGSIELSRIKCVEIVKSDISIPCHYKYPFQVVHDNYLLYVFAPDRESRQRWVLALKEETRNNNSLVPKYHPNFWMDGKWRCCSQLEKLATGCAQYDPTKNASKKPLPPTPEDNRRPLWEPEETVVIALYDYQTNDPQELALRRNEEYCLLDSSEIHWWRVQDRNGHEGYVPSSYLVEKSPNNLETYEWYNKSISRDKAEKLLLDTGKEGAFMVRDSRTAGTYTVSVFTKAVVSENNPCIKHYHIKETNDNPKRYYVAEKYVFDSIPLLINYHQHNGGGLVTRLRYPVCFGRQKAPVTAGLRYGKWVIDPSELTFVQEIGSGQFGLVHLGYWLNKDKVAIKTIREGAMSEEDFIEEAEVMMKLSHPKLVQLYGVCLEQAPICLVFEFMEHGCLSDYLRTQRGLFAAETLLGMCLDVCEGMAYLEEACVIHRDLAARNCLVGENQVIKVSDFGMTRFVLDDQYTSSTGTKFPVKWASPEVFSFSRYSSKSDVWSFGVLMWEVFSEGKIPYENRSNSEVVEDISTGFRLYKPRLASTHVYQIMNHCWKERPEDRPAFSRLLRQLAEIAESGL
Experimental: (§1) The degree of inhibition of a panel of kinases is determined using the in vitro HotSpot kinase assay (purified enzymes, ^33P-ATP, an appropriate substrate and 1 μM ATP).

BTK-WT = molecular target: T2, BTK-WT (Homo sapiens, UniProt Q06187); assay: Btk in vitro inhibitory activity (one of Method A TR-FRET, Method B electrophoretic mobility shift, Method C radiometric filter binding); details: D-compounds panel data; read-out: IC50 BTK-WT
T2 construct: purified from insect cells as a full-length construct containing an N-terminal 6X-His tag; His6 (N); made in house; host or cells: insect cells (baculovirus Sf21 in Method B)
T2 sequence (Q06187 whole entry): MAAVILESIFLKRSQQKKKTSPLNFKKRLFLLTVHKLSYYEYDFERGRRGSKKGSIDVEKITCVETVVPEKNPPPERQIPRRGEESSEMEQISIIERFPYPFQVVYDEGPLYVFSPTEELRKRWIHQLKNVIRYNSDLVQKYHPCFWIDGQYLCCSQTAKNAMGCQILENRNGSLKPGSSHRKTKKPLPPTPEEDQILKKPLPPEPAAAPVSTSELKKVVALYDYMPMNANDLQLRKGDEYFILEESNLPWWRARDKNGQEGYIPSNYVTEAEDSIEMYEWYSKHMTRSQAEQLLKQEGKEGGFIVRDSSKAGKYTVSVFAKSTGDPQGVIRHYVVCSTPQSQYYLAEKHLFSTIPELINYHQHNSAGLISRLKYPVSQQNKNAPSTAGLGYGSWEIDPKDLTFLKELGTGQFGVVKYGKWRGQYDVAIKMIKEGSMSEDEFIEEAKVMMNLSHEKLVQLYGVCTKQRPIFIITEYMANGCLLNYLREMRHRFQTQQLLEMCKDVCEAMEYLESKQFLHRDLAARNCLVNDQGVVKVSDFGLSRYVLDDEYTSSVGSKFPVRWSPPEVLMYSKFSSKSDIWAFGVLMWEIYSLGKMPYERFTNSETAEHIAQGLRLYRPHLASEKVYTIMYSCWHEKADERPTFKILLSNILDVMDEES

LCK = LCK (Homo sapiens, UniProt P06239); assay: Inhibition of a panel of kinases, in vitro HotSpot kinase assay: LCK; details: D-compounds panel data; 1 μM ATP; read-out: IC50 LCK
Chain of LCK (P06239 whole entry): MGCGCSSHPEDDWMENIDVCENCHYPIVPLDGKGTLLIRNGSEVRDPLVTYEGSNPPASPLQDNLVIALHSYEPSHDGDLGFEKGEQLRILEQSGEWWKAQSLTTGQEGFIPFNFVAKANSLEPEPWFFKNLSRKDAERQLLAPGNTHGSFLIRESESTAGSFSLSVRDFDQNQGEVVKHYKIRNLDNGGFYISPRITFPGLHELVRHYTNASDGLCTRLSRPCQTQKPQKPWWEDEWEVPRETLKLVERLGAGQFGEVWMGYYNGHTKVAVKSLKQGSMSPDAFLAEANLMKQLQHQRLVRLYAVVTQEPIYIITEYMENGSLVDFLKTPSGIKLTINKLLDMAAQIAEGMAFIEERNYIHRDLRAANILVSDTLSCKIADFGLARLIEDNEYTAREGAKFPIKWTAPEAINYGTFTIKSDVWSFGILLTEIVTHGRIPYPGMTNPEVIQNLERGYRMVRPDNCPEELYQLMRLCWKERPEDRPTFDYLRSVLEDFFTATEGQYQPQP

SRC = SRC (Homo sapiens, UniProt P12931); assay: Inhibition of a panel of kinases, in vitro HotSpot kinase assay: SRC; details: D-compounds panel data; 1 μM ATP
Chain of SRC (P12931 whole entry): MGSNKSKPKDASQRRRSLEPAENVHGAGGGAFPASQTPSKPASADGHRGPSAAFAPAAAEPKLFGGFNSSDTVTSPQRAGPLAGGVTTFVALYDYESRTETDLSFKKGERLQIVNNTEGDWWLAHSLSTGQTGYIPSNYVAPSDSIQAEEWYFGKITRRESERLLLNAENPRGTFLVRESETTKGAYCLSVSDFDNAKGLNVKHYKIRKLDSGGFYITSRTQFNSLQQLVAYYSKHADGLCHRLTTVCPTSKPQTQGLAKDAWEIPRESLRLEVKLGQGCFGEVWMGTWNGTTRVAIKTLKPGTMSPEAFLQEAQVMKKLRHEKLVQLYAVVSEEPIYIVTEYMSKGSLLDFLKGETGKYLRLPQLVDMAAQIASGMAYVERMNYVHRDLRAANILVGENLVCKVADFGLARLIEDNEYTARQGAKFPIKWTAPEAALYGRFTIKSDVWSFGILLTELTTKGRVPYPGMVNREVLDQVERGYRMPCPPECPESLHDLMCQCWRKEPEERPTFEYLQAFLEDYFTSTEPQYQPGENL
Experimental: as §1

EGFR = EGFR (Homo sapiens, UniProt P00533); assay: Inhibition of a panel of kinases, in vitro HotSpot kinase assay: EGFR; details: D-compounds panel data; 1 μM ATP
Chain of EGFR (P00533 25-1210): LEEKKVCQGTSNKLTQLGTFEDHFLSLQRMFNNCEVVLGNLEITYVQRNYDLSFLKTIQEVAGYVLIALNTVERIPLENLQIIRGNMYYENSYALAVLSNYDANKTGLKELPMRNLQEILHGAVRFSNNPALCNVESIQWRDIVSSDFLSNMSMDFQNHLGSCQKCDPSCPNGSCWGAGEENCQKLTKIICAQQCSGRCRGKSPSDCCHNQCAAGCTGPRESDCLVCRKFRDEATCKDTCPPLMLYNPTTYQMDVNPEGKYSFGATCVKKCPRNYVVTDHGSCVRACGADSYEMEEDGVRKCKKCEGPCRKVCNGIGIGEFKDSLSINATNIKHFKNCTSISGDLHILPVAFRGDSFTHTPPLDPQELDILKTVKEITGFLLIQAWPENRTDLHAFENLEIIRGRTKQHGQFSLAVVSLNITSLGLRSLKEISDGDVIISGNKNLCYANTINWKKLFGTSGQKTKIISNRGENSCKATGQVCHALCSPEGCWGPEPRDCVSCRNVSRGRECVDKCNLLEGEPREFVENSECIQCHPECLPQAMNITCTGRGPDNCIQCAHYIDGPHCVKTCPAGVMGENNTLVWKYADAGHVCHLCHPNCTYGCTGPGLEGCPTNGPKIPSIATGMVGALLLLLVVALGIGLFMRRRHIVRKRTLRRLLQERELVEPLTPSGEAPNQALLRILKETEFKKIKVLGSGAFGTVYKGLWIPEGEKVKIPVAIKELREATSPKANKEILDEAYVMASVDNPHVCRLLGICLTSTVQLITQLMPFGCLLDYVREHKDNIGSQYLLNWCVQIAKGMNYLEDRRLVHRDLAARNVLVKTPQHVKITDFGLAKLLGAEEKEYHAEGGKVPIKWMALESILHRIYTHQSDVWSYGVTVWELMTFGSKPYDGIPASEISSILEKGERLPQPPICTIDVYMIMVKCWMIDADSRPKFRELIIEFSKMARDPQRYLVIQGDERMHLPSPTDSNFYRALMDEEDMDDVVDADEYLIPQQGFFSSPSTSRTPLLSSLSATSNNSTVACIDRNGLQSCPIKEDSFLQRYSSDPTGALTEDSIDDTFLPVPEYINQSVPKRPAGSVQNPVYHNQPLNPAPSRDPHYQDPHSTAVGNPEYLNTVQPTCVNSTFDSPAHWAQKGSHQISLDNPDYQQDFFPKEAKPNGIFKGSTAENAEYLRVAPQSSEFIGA
Experimental: as §1

Compound	IC50 (ITK) [nM]	IC50 (BTK-WT) [nM]	IC50 (LCK) [nM]	IC50 (SRC) [nM]	IC50 (EGFR) [nM]
C[C@H]1CC[C@@H](NC(=O)c2ccc(C(C)(C)O)cc2)CN1c1nnc(C(N)=O)c(Nc2cnn(C)c2)n1 [Example D-157, 3-[(2S,5R)-5-[4-(2-hydroxypropan-2-yl)benzamido]-2-methylpiperidin-1-yl]-5-[(1-methyl-1H-pyrazol-4-yl)amino]-1,2,4-triazine-6-carboxamide]	10 to 100	≤ 10	10 to 100	10 to 100	1000 to 10000
Cc1cc(Nc2nc(N3CCC[C@@H](NC(=O)c4ccc(C(C)(C)O)cc4)C3)cnc2C(N)=O)sn1 [Example D-158, 5-[(3R)-3-[4-(2-hydroxypropan-2-yl)benzamido]piperidin-1-yl]-3-[(3-methyl-1,2-thiazol-5-yl)amino]pyrazine-2-carboxamide]	100 to 1000	≤ 10	100 to 1000	100 to 1000	1000 to 10000
Cc1cc(Nc2nc(N3CCC[C@@H](NC(=O)c4ccc(C(C)(C)O)cc4)[C@H]3C)cnc2C(N)=O)sn1 [Example D-159, 5-[(2R,3R)-3-[4-(2-hydroxypropan-2-yl)benzamido]-2-methylpiperidin-1-yl]-3-[(3-methyl-1,2-thiazol-5-yl)amino]pyrazine-2-carboxamide]	100 to 1000	≤ 10	10 to 100	10 to 100	100 to 1000
C[C@@H]1[C@H](NC(=O)c2ccc(C(C)(C)O)c(F)c2)CCCN1c1cnc(C(N)=O)c(Nc2cnn(C)c2)n1 [Example D-160, 5-[(2R,3R)-3-[3-fluoro-4-(2-hydroxypropan-2-yl)benzamido]-2-methylpiperidin-1-yl]-3-[(1-methyl-1H-pyrazol-4-yl)amino]pyrazine-2-carboxamide]	100 to 1000	≤ 10	10 to 100	10 to 100	100 to 1000
COC(C)(C)c1ccc(C(=O)N[C@@H]2CCCN(c3cnc(C(N)=O)c(Nc4cnn(C)c4)n3)[C@@H]2C)cc1 [Example D-161, 5-[(2R,3R)-3-[4-(2-methoxypropan-2-yl)benzamido]-2-methylpiperidin-1-yl]-3-[(1-methyl-1H-pyrazol-4-yl)amino]pyrazine-2-carboxamide]	100 to 1000	≤ 10	100 to 1000	10 to 100	1000 to 10000
C[C@@H]1[C@H](NC(=O)N(C)C)CCCN1c1cnc(C(N)=O)c(Nc2cc(C3CCOCC3)ns2)n1 [Example D-162, 5-[(2R,3R)-3-[(dimethylcarbamoyl)amino]-2-methylpiperidin-1-yl]-3-{[3-(oxan-4-yl)-1,2-thiazol-5-yl]amino}pyrazine-2-carboxamide]	100 to 1000	≤ 10	10 to 100	10 to 100	100 to 1000
C[C@@H]1[C@H](NC(=O)N(C)C)CCCN1c1cnc(C(N)=O)c(Nc2cc(C3CCN(C4CCCC4)CC3)ns2)n1 [Example D-163, 3-{[3-(1-cyclopentylpiperidin-4-yl)-1,2-thiazol-5-yl]amino}-5-[(2R,3R)-3-[(dimethylcarbamoyl)amino]-2-methylpiperidin-1-yl]pyrazine-2-carboxamide]	10 to 100	≤ 10	< 10	≤ 10	100 to 1000
Cc1cc(Nc2nc(N3CCCC(c4ncc(-c5ccccc5)[nH]4)C3)cnc2C(N)=O)sn1 [Example D-164, 3-[(3-methyl-1,2-thiazol-5-yl)amino]-5-[3-(4-phenyl-3H-imidazol-2-yl)piperidin-1-yl]pyrazine-2-carboxamide]	1000 to 10000	10 to 100	100 to 1000	100 to 1000	100 to 1000
CN1CCN(c2ccc(Nc3nc(N4CCC[C@@H](n5ccc6cc(C7CC7)ccc6c5=O)C4)cnc3C(N)=O)cc2)CC1 [Example D-165, 5-[(3R)-3-(6-cyclopropyl-1-oxo-1,2-dihydroisoquinolin-2-yl)piperidin-1-yl]-3-{[4-(4-methylpiperazin-1-yl)phenyl]amino}pyrazine-2-carboxamide]	100 to 1000	≤ 10	100 to 1000	100 to 1000	> 10000
Cc1cc(Nc2nc(N3CCC[C@@H](n4ccc5cc(C6CC6)ccc5c4=O)C3)cnc2C(N)=O)sn1 [Example D-166, 5-[(3R)-3-(6-cyclopropyl-1-oxo-1,2-dihydroisoquinolin-2-yl)piperidin-1-yl]-3-[(3-methyl-1,2-thiazol-5-yl)amino]pyrazine-2-carboxamide]	> 10000	≤ 10	> 10000	> 10000	> 10000
CN1CCN(Cc2ccc(Nc3nc(N4CCC[C@@H](n5ccc6cc(C7CC7)ccc6c5=O)C4)cnc3C(N)=O)cc2)CC1 [Example D-167, 5-[(3R)-3-(6-cyclopropyl-1-oxo-1,2-dihydroisoquinolin-2-yl)piperidin-1-yl]-3-({4-[(4-methylpiperazin-1-yl)methyl]phenyl}amino)pyrazine-2-carboxamide]	100 to 1000	≤ 10	100 to 1000	100 to 1000	1000 to 10000
NC(=O)c1ncc(N2CCC[C@@H](n3ccc4cc(C5CC5)ccc4c3=O)C2)nc1Nc1ccc2ncccc2c1 [Example D-168, 5-[(3R)-3-(6-cyclopropyl-1-oxo-1,2-dihydroisoquinolin-2-yl)piperidin-1-yl]-3-[(quinolin-6-yl)amino]pyrazine-2-carboxamide]	> 10000	100 to 1000	> 10000	> 10000	> 10000
